# Measured values published in patent publication US11420984B2, “Arginase inhibitors and methods of use thereof” (AstraZeneca AB, priority 2018, dated 2022).
# Where two headings read alike, the source gives them in different places. Marks after values point to notes of the source that are not given here.
# What was measured:
# Human Arginase 1 = Human Arginase 1 (Homo sapiens (Human), UniProt P05089); test: Human Arginase 1 enzyme inhibition (thioarginine/DTNB absorbance assay); format: biochemical; conditions: recombinant enzyme 5 nM, 0.5 mM thioarginine premix, 60 min
# Experimental: (§1) The thiol group was detected with Ellman's reagent, 5,5′-dithiobis(2-nitrobenzoic acid) (DTNB). DTNB reacts with the thiol to give the mixed disulfide and 2-nitro-5-thiobenzoic acid (TNB) which is quantified by the absorbance of the anion (TNB^2−) at 412 nm.
# (§2) The assays were run in clear 384 well plates (Greiner cat no: 781101). […] Two pre-mixes were prepared from reagents thawed immediately before addition to assay plates. Pre-mix one comprised human Arginase 1 or human Arginase 2, at a final concentration of 5 nM and 0.5 mM DTNB in assay buffer, 45 mM HEPES pH7.5, brij 35, 0.045% (w/v) and 100 μM MnCl2. Pre-mix two comprised freshly thawed 0.5 mM thioarginine in assay buffer.
# (§3) Assay plates were centrifuged prior to reading absorbance at 412 nm in a Pherastar multi-mode plate reader to collect data at time point 0 (T0). The plates were incubated at room temperature for 60 min prior to reading again to collect data at time point 1 (T1). Data is derived by subtracting the A412 signal measured at T0 (time point 0) from that measured at T1 (time point 1). The data was transformed to % effect using the equation: Compound % effect=100*[(X−min)/(max−min)], where X represents the normalized value for the compound based on the Min (vehicle) and Max (reference compound) inhibition control.
# Human Arginase 2 = Human Arginase 2 (Homo sapiens (Human), UniProt P78540); test: Human Arginase 2 enzyme inhibition (thioarginine/DTNB absorbance assay); format: biochemical; conditions: recombinant enzyme 5 nM, 0.5 mM thioarginine premix, 60 min
# Experimental: as §1, §2, §3
# [1] = Bioavailability / pharmacokinetic study in male rats (IV and PO); format: in vivo, rat; conditions: plasma; for Vd: read-out: Vdss
# Experimental: Example 8 was formulated in 0.9% w/v saline pH 4 (adjusted with 1M HCl) for IV dosing. The formulation was dosed at 2 mg/kg by femoral catheter to two male rats each (170-250 g). Jugular vein catheter serial blood samples were taken at 0.033, 0.083, 0.167, 0.5, 1, 2, 4, 8, and 24 hrs post-dose. For PO dosing, Example 8 was formulated in deionized water pH 4 (adjusted with 1M HCl) and dosed at 5 mg/kg by oral gavage to two male rats each (170-250 g). Serial blood samples were taken by jugular vein catheter at 0.25, 0.5, 1, 1.5, 2, 3, 4, 8, and 24 hrs post dose. Plasma samples were generated from blood using low speed centrifugation. […] The samples and standards were extracted by precipitation with two volumes of acetonitrile followed by centrifugation. […] Where appropriate, measured and not nominal doses were used to calculate bioavalability.
# [2] = Interconversion of Compound B to Compound A observed by NMR; format: physicochemical
# Excerpt: Compound B (Example 19) was obtained by the intramolecular cyclization of Example 9 (Compound A) via an interconversion process. Furthermore, interconversions between Compound A (Example 9) and Compound B were observed under various conditions. For example, Compound B was converted to Compound A in the presence of water and such conversion was proportional to the concentration of water in the solvent. […] In d6-DMSO, compound B predominates, while there is a proportional increase in compound A with increase in D2O concentration. The proportion of compound A relative to compound B in 100% D2O reaches approximately 90%. Furthermore, Compound B was converted to Compound A under acidic condition.
# [3] = Bioavailability / pharmacokinetic study in male rats (IV and PO); format: in vivo; conditions: Example 7 when dosed as payload, male rat
# [4] = pro-drug itself, observed when dosed as pro-drug, male rat, IV 2 mg/kg
# [5] = pro-drug itself, observed when dosed as pro-drug, male rat, PO 5 mg/kg
# Chain of Human Arginase 1 (P05089 whole entry): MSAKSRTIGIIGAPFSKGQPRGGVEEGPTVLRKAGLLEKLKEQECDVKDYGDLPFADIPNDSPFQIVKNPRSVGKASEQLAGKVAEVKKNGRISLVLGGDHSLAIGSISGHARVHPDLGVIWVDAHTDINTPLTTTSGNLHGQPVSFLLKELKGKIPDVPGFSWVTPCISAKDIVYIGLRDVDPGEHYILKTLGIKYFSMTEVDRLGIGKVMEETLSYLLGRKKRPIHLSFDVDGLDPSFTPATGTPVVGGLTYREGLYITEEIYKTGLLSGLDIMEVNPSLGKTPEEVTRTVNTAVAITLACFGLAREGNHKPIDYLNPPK
# Chain of Human Arginase 2 (P78540 23-354): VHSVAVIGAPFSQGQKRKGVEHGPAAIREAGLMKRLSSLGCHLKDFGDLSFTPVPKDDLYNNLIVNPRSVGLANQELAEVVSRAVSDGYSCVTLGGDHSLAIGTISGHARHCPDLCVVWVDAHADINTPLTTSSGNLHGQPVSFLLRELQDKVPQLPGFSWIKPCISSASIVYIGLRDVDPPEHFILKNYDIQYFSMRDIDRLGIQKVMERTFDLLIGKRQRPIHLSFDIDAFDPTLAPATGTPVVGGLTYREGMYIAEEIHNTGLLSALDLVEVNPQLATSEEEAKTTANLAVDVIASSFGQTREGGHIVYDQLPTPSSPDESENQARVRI
IC50 (Human Arginase 1) [nM],IC50 (Human Arginase 2) [nM],"clearance [1, 4] [mL/min/kg]","Vd [1, 4] [L/kg]","AUC [1, 5] [µM·h]","Cmax [1, 5] [nM]","Tmax [1, 5] [min]","bioavailability ([1]; pro-drug itself, observed when dosed as pro-drug, male rat, PO 5 mg/kg vs IV 2 mg/kg) [%]",conversion to compound A under acidic condition ([2]; compound B in 0.1 M DCl in D2O),proportion of compound A relative to compound B ([2]; compound B in 100% D2O),"clearance ([1]; male, rat, iv) [mL/min/kg]","Vd ([1]; male, rat, iv) [L/kg]",Cl (mL/min/kg) [3],Vdss (L/kg) [3],SMILES
220,280,36.8,0.2,0.21,330,15,2.5,almost complete conversion to compound A,approximately 90%,,,,,"CC(C)[C@H](N)C(=O)N[C@H]1CN[C@]2(CCCCB(O)OC2=O)C1 [Example 19, (S)-2-amino-N-((3R,5R)-8-hydroxy-6-oxo-7-oxa-1-aza-8-boraspiro[4.7]dodecan-3-v1)-3-methylbutanamide]"
,,,,,,,,,,8.9,0.26,8.90 * mL/min/kg,0.26 * L/kg,"N[C@H]1CN[C@@](CCCCB(O)O)(C(=O)O)C1 [Example 7, (2R,4R)-4-amino-2-(4-boronobutyl)pyrrolidine-2-carboxylic acid]"
